Laboratory results published in ChEMBL document CHEMBL1201862, “PubChem BioAssay data set” (2004).
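All cell lines were grown in 96-well plates and treated with compound for 48 hours. GI50 is the concentration that inhibits growth by half.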 Activity calls are given as the source filed them. Cut-off read from the data, not from the text of the source: active = GI50 up to about 1.1 µM and inactive = higher.

Tests used:
Test in all cases: inhibition of tumour cell growth, NCI panel, 48 h
OVCAR-5 = test system: OVCAR-5
KM12 = test system: KM12
SK-MEL-5 = test system: SK-MEL-5
SN12C = test system: SN12C
NCI-H23 = test system: NCI-H23
Malme-3M = test system: Malme-3M
NCI-H460 = test system: NCI-H460
Hs-578T = test system: Hs-578T
CAKI-1 = test system: CAKI-1
MDA-MB-435 = test system: MDA-MB-435
HT-29 = test system: HT-29
HCC 2998 = test system: HCC 2998
OVCAR-3 = test system: OVCAR-3
786-0 = test system: 786-0
RXF 393 = test system: RXF 393
MDA-N = test system: MDA-N
UACC-62 = test system: UACC-62
EKVX = test system: EKVX
NCI-H226 = test system: NCI-H226
K562 = test system: K562

Compound | GI50 (OVCAR-5) | GI50 (KM12) | GI50 (SK-MEL-5) | GI50 (SN12C) | GI50 (NCI-H23) | GI50 (Malme-3M) | GI50 (NCI-H460) | GI50 (Hs-578T) | GI50 (CAKI-1) | GI50 (MDA-MB-435) | GI50 (HT-29) | GI50 (HCC 2998) | GI50 (OVCAR-3) | GI50 (786-0) | GI50 (RXF 393) | GI50 (MDA-N) | GI50 (UACC-62) | GI50 (EKVX) | GI50 (NCI-H226) | GI50 (K562)
N#Cc1ccccc1NC(=O)/C(=N\NC(=O)c1ccncc1)C(c1cnc2ccc([N+](=O)[O-])cc2n1)[N+](=O)[O-] (configuration not stated) | > 100 µM (inactive) | 39.9 µM (inactive) | 63.7 µM (inactive) | > 100 µM (inactive) | > 100 µM (inactive) | > 100 µM (inactive) | 64.6 µM (inactive) | > 100 µM (inactive) | > 100 µM (inactive) | 74.8 µM (inactive) | > 100 µM (inactive) | > 100 µM (inactive) | > 100 µM (inactive) | > 100 µM (inactive) | > 100 µM (inactive) | > 100 µM (inactive) | > 100 µM (inactive) | 53.1 µM (inactive) | > 100 µM (inactive) | –
O=C1C=CC(=O)c2c1ccc1c3ccccc3n(Cc3ccccc3)c21 | 20.9 µM (inactive) | > 57.5 µM (inactive) | 32.3 µM (inactive) | 21.6 µM (inactive) | 19.5 µM (inactive) | 16.6 µM (inactive) | > 43.2 µM (inactive) | 42.2 µM (inactive) | 17.2 µM (inactive) | 26.1 µM (inactive) | 24.9 µM (inactive) | > 37 µM (inactive) | 17.3 µM (inactive) | 16.2 µM (inactive) | 16.8 µM (inactive) | 23 µM (inactive) | 25.4 µM (inactive) | > 64.9 µM (inactive) | 7.29 µM (inactive) | 2.84 µM (inactive)
O=C(/C=C1\Nc2ccc([N+](=O)[O-])cc2N\C1=C/C(=O)c1ccc(F)cc1)c1ccc(F)cc1 | > 100 µM (inactive) | > 100 µM (inactive) | 78.5 µM (inactive) | 90.2 µM (inactive) | 19.9 µM (inactive) | > 100 µM (inactive) | 46.3 µM (inactive) | 14.9 µM (inactive) | 48.1 µM (inactive) | > 100 µM (inactive) | > 100 µM (inactive) | 80 µM (inactive) | 25 µM (inactive) | 12.9 µM (inactive) | 17.9 µM (inactive) | > 100 µM (inactive) | 29.4 µM (inactive) | 45.9 µM (inactive) | 27.1 µM (inactive) | 22.2 µM (inactive)
COC(=O)[C@]12CC[C@H]3CN(C(=O)OCc4ccccc4)[C@H]([C@H]31)[C@H](c1ccco1)N2S(=O)(=O)c1ccc(C)cc1 | 38.5 µM (inactive) | 19.3 µM (inactive) | 16.5 µM (inactive) | 18.5 µM (inactive) | 24.7 µM (inactive) | 21.3 µM (inactive) | 26.5 µM (inactive) | 73.5 µM (inactive) | 28.8 µM (inactive) | 23.3 µM (inactive) | 20.6 µM (inactive) | 19.5 µM (inactive) | 19.1 µM (inactive) | 17.5 µM (inactive) | 18.2 µM (inactive) | 18.9 µM (inactive) | 15 µM (inactive) | 44.4 µM (inactive) | 27.5 µM (inactive) | 16.9 µM (inactive)
NC1CC(=O)c2csc(Cl)c21 (configuration not stated) | 19.6 µM (inactive) | 0.736 µM (active) | 18.5 µM (inactive) | 5.42 µM (inactive) | 20.7 µM (inactive) | 2.68 µM (inactive) | 22.5 µM (inactive) | 35.5 µM (inactive) | 1.86 µM (inactive) | 12.8 µM (inactive) | 10.3 µM (inactive) | 17.6 µM (inactive) | 6.38 µM (inactive) | 1.55 µM (inactive) | 5.78 µM (inactive) | 8.63 µM (inactive) | 10 µM (inactive) | 17.3 µM (inactive) | 37 µM (inactive) | 2.74 µM (inactive)
CCCN(CCCc1ccccc1)CCc1ccc2[nH]c(=S)[nH]c2c1 | 48.5 µM (inactive) | 26.1 µM (inactive) | – | > 100 µM (inactive) | 40.6 µM (inactive) | 12.9 µM (inactive) | 13.2 µM (inactive) | 39.8 µM (inactive) | 28.9 µM (inactive) | 18.7 µM (inactive) | – | 13.3 µM (inactive) | 37.1 µM (inactive) | 12.6 µM (inactive) | 11.2 µM (inactive) | 19.2 µM (inactive) | 31 µM (inactive) | 58.9 µM (inactive) | 66.5 µM (inactive) | 2.02 µM (inactive)
O=C1/C(=C/c2ccccc2)CCc2ccccc21 | 16.8 µM (inactive) | 18 µM (inactive) | 17.7 µM (inactive) | 21.9 µM (inactive) | 19.6 µM (inactive) | 16.6 µM (inactive) | 26.1 µM (inactive) | 19.8 µM (inactive) | 17.7 µM (inactive) | 14.8 µM (inactive) | 16.6 µM (inactive) | 16.3 µM (inactive) | 16.6 µM (inactive) | 17.5 µM (inactive) | 15.2 µM (inactive) | 16.2 µM (inactive) | 17.9 µM (inactive) | 17.8 µM (inactive) | 18.3 µM (inactive) | 6.97 µM (inactive)
